Consider 22 compounds from patent US20240217960A1, “TRIAZINE DERIVATIVE AS COVALENT INHIBITORS OF PI3K” (UNIVERSITÄT BASEL, priority 2021, published 2024).

pIC50, pKi: −log10 of the molar value. Like-named read-outs stand apart in the source and are kept apart here.

In assay [1] the test system is pSer473 of PKB/Akt in SKOV3 cells. In words: In Cell Western cellular PI3K signaling and IC50 determination. The format is cell-based. As to conditions: Homo sapiens, SK-OV-3; SKOV3 cells; 2 or 3 independent measurements; read-out: IC50 pPKB (S473) SKOV3. On the procedure:
Protein phosphorylation was detected as follows: pSer473 of PKB/Akt with rabbit polyclonal antibody from Cell Signaling Technology (CST) (#4058) by In-Cell Western assays, where 1.2×10^4 SKOV3 cells/well in 96-well plates were plated (Cell Carrier, PerkinElmer) for 24 hours (37° C., 5% CO2), as described in Ref. ^25.

The next assay has as its target p110α (PI3Kα) (Homo sapiens, UniProt P42336). The assay can be described thus: Determination of kinetic constants (kinact, Ki) for p110α by LanthaScreen Technology. It is filed as binding. As to conditions: for pKi: dissociation constant of the first reversible binding, read-out: Ki PI3Kα; for kinact: read-out: kinact PI3Kα; for kinact/KI: read-out: kinact/Ki PI3Kα. Background: Time-resolved FRET reads energy transfer from a long-lived donor to a nearby acceptor.

Assay [2] can be described thus: Intrinsic reactivity of the inhibitors (kchem) with βME measured with HPLC. The format is physicochemical. Particulars: 1 mM inhibitor + 600 mM βME, n = 3.
Setting [3] is: maximum potential rate of covalent bond formation, global fitting with KinTek.

Sequence of p110α (PI3Kα) (P42336 whole entry): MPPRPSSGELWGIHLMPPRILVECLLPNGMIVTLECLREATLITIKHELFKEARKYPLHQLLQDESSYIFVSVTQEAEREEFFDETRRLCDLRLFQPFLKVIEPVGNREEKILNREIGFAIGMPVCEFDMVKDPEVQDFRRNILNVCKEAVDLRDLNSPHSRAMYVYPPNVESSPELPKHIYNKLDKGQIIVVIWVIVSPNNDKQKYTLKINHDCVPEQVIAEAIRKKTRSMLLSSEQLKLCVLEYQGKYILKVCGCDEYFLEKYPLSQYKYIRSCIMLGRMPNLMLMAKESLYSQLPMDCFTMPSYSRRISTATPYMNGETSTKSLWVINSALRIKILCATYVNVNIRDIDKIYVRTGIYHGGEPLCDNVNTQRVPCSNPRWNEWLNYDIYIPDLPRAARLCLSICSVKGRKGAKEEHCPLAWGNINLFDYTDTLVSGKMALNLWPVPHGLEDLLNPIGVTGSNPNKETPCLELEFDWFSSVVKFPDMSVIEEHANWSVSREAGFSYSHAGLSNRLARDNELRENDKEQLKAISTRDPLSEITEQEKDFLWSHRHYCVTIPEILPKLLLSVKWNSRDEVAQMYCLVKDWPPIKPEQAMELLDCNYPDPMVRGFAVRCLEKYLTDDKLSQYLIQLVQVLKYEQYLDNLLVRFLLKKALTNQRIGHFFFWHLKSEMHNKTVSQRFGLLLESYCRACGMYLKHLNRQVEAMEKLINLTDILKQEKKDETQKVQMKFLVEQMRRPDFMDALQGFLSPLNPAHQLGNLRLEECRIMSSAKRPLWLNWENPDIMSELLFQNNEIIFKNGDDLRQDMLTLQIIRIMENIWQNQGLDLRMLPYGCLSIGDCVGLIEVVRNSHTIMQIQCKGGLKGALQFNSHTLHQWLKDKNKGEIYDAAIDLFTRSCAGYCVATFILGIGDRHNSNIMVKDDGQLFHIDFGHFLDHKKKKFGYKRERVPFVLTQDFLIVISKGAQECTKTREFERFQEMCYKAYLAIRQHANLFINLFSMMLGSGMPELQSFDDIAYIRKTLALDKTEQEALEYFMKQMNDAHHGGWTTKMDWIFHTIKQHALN
Sequence of p110α (PI3Kα) (P27986 whole entry partner): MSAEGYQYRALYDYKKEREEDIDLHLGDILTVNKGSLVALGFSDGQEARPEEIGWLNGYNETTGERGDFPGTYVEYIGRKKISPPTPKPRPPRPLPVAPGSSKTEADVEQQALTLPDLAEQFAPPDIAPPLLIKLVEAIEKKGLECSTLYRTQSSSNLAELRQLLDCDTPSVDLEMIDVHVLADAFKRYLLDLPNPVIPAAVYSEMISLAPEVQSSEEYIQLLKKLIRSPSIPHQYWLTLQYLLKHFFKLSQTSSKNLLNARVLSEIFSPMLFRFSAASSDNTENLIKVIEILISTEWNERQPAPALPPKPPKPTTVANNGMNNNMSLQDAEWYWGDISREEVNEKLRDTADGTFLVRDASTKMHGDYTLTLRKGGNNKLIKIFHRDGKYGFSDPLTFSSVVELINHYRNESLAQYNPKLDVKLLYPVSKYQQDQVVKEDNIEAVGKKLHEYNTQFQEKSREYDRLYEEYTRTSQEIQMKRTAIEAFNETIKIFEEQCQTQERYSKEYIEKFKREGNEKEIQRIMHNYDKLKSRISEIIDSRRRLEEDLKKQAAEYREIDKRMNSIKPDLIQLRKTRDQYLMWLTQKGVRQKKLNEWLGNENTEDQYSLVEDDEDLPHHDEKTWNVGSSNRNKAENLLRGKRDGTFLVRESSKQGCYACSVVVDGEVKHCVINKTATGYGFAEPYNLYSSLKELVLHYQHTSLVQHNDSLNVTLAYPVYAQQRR
Experimental for p110α (PI3Kα): Maximum potential rate of covalent bond formation (kinact) and dissociation constant of the first reversible binding (Ki) of compounds for p110α were determined by LanthaScreen Technology (Life Technologies). The calculation of kinetic parameters was carried out through global fitting for numerical integration by using KinTek Global Kinetic Explorer modelling software^26-31.

For `CC(C)=CC(=O)CCCC(=O)N1CC(C(=O)N2CCN(c3nc(-c4cnc(N)nc4C(F)F)nc(N4CCOCC4)n3)CC2)C1` [Compound 94, 1-(3-(4-(4-(2-amino-4-(difluoromethyl)pyrimidin-5-yl)-6-morpholino-1,3,5-triazin-2-yl)piperazine-1-carbonyl)azetidin-1-yl)-7-methyloct-6-ene-1,5-dione], in assay [1], the pIC50 is 7.92. For the compound `CCC(=O)N1CCC(C(=O)NCC(=O)N2CCN(c3nc(-c4cnc(N)nc4C(F)F)nc(N4CCOCC4)n3)CC2)CC1` [Compound 44, N-(2-(4-(4-(2-amino-4-(difluoromethyl)pyrimidin-5-yl)-6-morpholino-1,3,5-triazin-2-yl)piperazin-1-yl)-2-oxoethyl)-1-propionylpiperidine-4-carboxamide], the negative-log Ki (pKi) at p110α (PI3Kα) (global fitting with KinTek) is 8.59. The pIC50 in assay [1] is 6.70. Regarding `CC(C)=CC(=O)CCCC(=O)N1CC[C@@H](C(=O)N2CCN(c3nc(-c4cnc(N)nc4C(F)F)nc(N4CCOCC4)n3)CC2)C1` [Compound 89, (R)-1-(3-(4-(4-(2-amino-4-(difluoromethyl)pyrimidin-5-yl)-6-morpholino-1,3,5-triazin-2-yl)piperazine-1-carbonyl)pyrrolidin-1-yl)-7-methyloct-6-ene-1,5-dione], the negative logarithm of the IC50 (pIC50) in assay [1] was 8.17. With `C=CC(=O)NCCCC(=O)N1CCN(c2nc(-c3cnc(N)nc3C(F)F)nc(N3CCOCC3)n2)CC1` [Compound 13, N-(4-(4-(4-(2-amino-4-(difluoromethyl)pyrimidin-5-yl)-6-morpholino-1,3,5-triazin-2-yl)piperazin-1-yl)-4-oxobutyl)acrylamide], the “kchem (intrinsic reactivity of the inhibitors)” value in assay [2] was found to be 0.000138 M⁻¹ s⁻¹. For the same compound, at p110α (PI3Kα) (global fitting with KinTek), the negative logarithm of the Ki (pKi) was 8.27. The kinact on p110α (PI3Kα) (setting [3]) is 7.6e-05 s⁻¹. Also, on p110α (PI3Kα), the kinact/KI came to 14200 M⁻¹ s⁻¹.

With `CC(C)=CC(=O)CCCC(=O)N1CC[C@@H](C(=O)N2CCN(c3nc(-c4cnc(N)cc4C(F)(F)F)nc(N4CCOCC4)n3)CC2)C1` [Compound 90, (R)-1-(3-(4-(4-(6-amino-4-(trifluoromethyl)pyridin-3-yl)-6-morpholino-1,3,5-triazin-2-yl)piperazine-1-carbonyl)pyrrolidin-1-yl)-7-methyloct-6-ene-1,5-dione], the negative logarithm of the IC50 (pIC50) in assay [1] is 7.03. With `C=CC(=O)N(C)CCCC(=O)N1CCN(c2nc(-c3cnc(N)nc3C(F)F)nc(N3CCOCC3)n2)CC1` [Compound 7, N-(4-(4-(4-(2-amino-4-(difluoromethyl)pyrimidin-5-yl)-6-morpholino-1,3,5-triazin-2-yl)piperazin-1-yl)-4-oxobutyl)-N-methylacrylamide], the “kchem (intrinsic reactivity of the inhibitors)” value in assay [2] turned out to be 0.000228 M⁻¹ s⁻¹. Besides, on p110α (PI3Kα) (global fitting with KinTek), the pKi was 8.14. Further, at p110α (PI3Kα), the inactivation rate constant (kinact) was found to be 6.9e-05 s⁻¹ and the kinact/KI was determined as 9600 M⁻¹ s⁻¹. Take `CC(C)=CC(=O)CCCC(=O)N1CCC(C(=O)N2CCN(c3nc(-c4cnc(N)cc4C(F)(F)F)nc(N4CCOCC4)n3)CC2)CC1` [Compound 71, 1-(4-(4-(4-(6-amino-4-(trifluoromethyl)pyridin-3-yl)-6-morpholino-1,3,5-triazin-2-yl)piperazine-1-carbonyl)piperidin-1-yl)-7-methyloct-6-ene-1,5-dione]: in assay [1], the negative logarithm of the IC50 (pIC50) was 6.95. Still for that read-out and setting: under `CN(C)C/C=C/C(=O)N1CCC(C(=O)N(C)CC(=O)N2CCN(c3nc(-c4cnc(N)nc4C(F)F)nc(N4CCOCC4)n3)CC2)CC1` [Compound 56, (E)-N-(2-(4-(4-(2-amino-4-(difluoromethyl)pyrimidin-5-yl)-6-morpholino-1,3,5-triazin-2-yl)piperazin-1-yl)-2-oxoethyl)-1-(4-(dimethylamino)but-2-enoyl)-N-methylpiperidine-4-carboxamide] stands 6.05. With `CC(C)=CC(=O)CCC(=O)N1CCN(c2nc(-c3cnc(N)nc3C(F)F)nc(N3CCOCC3)n2)CC1` [Compound 22, 1-(4-(4-(2-amino-4-(difluoromethyl)pyrimidin-5-yl)-6-morpholino-1,3,5-triazin-2-yl)piperazin-1-yl)-6-methylhept-5-ene-1,4-dione], in assay [2], the “kchem (intrinsic reactivity of the inhibitors)” value was found to be 0.000188 M⁻¹ s⁻¹. Further, the maximal inactivation rate constant (kinact) at p110α (PI3Kα) (setting [3]) was determined as 1.13e-05 s⁻¹. With `CC(C)=CC(=O)CCC(=O)N1CC[C@@H](C(=O)N2CCN(c3nc(-c4cnc(N)nc4C(F)F)nc(N4CCOCC4)n3)CC2)C1` [Compound 86, (R)-1-(3-(4-(4-(2-amino-4-(difluoromethyl)pyrimidin-5-yl)-6-morpholino-1,3,5-triazin-2-yl)piperazine-1-carbonyl)pyrrolidin-1-yl)-6-methylhept-5-ene-1,4-dione], the pIC50 in assay [1] is 7.77. As to `CC(C)=CC(=O)CCCC(=O)N1CCC(C(=O)N2CCN(c3nc(-c4cnc(N)nc4C(F)F)nc(N4CCOCC4)n3)CC2)CC1` [Compound 69, 1-(4-(4-(4-(2-amino-4-(difluoromethyl)pyrimidin-5-yl)-6-morpholino-1,3,5-triazin-2-yl)piperazine-1-carbonyl)piperidin-1-yl)-7-methyloct-6-ene-1,5-dione], the negative logarithm of the IC50 (pIC50) in assay [1] is 7.51. `CC(C)=CC(=O)CCCC(=O)N1CC(CN2CCN(c3nc(-c4cnc(N)nc4C(F)F)nc(N4CCOCC4)n3)CC2)C1` [Compound 97, 1-(3-((4-(4-(2-amino-4-(difluoromethyl)pyrimidin-5-yl)-6-morpholino-1,3,5-triazin-2-yl)piperazin-1-yl)methyl)azetidin-1-yl)-7-methyloct-6-ene-1,5-dione]: the pIC50 in assay [1] was 7.77. Consider `CC(C)=CC(=O)CCCC(=O)N1CC[C@H](C(=O)N2CCN(c3nc(-c4cnc(N)cc4C(F)(F)F)nc(N4CCOCC4)n3)CC2)C1` [Compound 85, (S)-1-(3-(4-(4-(6-amino-4-(trifluoromethyl)pyridin-3-yl)-6-morpholino-1,3,5-triazin-2-yl)piperazine-1-carbonyl)pyrrolidin-1-yl)-7-methyloct-6-ene-1,5-dione], for which the negative-log IC50 (pIC50) in assay [1] is 7.14. For `CC(C)=CC(=O)NCCCC(=O)N1CCN(c2nc(-c3cnc(N)nc3C(F)F)nc(N3CCOCC3)n2)CC1` [Compound 17, N-(4-(4-(4-(2-amino-4-(difluoromethyl)pyrimidin-5-yl)-6-morpholino-1,3,5-triazin-2-yl)piperazin-1-yl)-4-oxobutyl)-3-methylbut-2-enamide], the “kchem (intrinsic reactivity of the inhibitors)” value in assay [2] was <<1.00 × 10^−7 M^−1 · s^−1.

As for `CC(C)=CC(=O)CCC(=O)N1CC[C@H](C(=O)N2CCN(c3nc(-c4cnc(N)nc4C(F)F)nc(N4CCOCC4)n3)CC2)C1` [Compound 81, (S)-1-(3-(4-(4-(2-amino-4-(difluoromethyl)pyrimidin-5-yl)-6-morpholino-1,3,5-triazin-2-yl)piperazine-1-carbonyl)pyrrolidin-1-yl)-6-methylhept-5-ene-1,4-dione], the pIC50 in assay [1] is 7.62. The same measure, in the same setting: under `CC(C)=CC(=O)CCC(=O)N1CC(C(=O)N2CCN(c3nc(-c4cnc(N)nc4C(F)F)nc(N4CCOCC4)n3)CC2)C1` [Compound 92, 1-(3-(4-(4-(2-amino-4-(difluoromethyl)pyrimidin-5-yl)-6-morpholino-1,3,5-triazin-2-yl)piperazine-1-carbonyl)azetidin-1-yl)-6-methylhept-5-ene-1,4-dione] stands 7.47; under `CC(C)=CC(=O)CCC(=O)N1CCC(CN2CCN(c3nc(-c4cnc(N)nc4C(F)F)nc(N4CCOCC4)n3)CC2)CC1` [Compound 72, 1-(4-((4-(4-(2-amino-4-(difluoromethyl)pyrimidin-5-yl)-6-morpholino-1,3,5-triazin-2-yl)piperazin-1-yl)methyl)piperidin-1-yl)-6-methylhept-5-ene-1,4-dione], 7.34; under `CC(C)=CC(=O)CCCC(=O)N1CC[C@H](C(=O)N2CCN(c3nc(-c4cnc(N)nc4C(F)F)nc(N4CCOCC4)n3)CC2)C1` [Compound 84, (S)-1-(3-(4-(4-(2-amino-4-(difluoromethyl)pyrimidin-5-yl)-6-morpholino-1,3,5-triazin-2-yl)piperazine-1-carbonyl)pyrrolidin-1-yl)-7-methyloct-6-ene-1,5-dione], 7.96. The same measure, in the same setting: the value for `CC(C)=CC(=O)CCCC(=O)N1CCC(CN2CCN(c3nc(-c4cnc(N)cc4C(F)(F)F)nc(N4CCOCC4)n3)CC2)CC1` [Compound 78, 1-(4-((4-(4-(6-amino-4-(trifluoromethyl)pyridin-3-yl)-6-morpholino-1,3,5-triazin-2-yl)piperazin-1-yl)methyl)piperidin-1-yl)-7-methyloct-6-ene-1,5-dione] was 6.75; that for `CC(C)CC(=O)CCCC(=O)N1CCC(C(=O)N2CCN(c3nc(-c4cnc(N)nc4C(F)F)nc(N4CCOCC4)n3)CC2)CC1` [Compound 70, 1-(4-(4-(4-(2-amino-4-(difluoromethyl)pyrimidin-5-yl)-6-morpholino-1,3,5-triazin-2-yl)piperazine-1-carbonyl)piperidin-1-yl)-7-methyloctane-1,5-dione] was 7.20. On to `N#C/C(=C/C1CC1)C(=O)N1CCC(COCC(=O)N2CCN(c3nc(-c4cnc(N)nc4C(F)F)nc(N4CCOCC4)n3)CC2)CC1` [Compound 118, (Z)-2-(4-((2-(4-(4-(2-amino-4-(difluoromethyl)pyrimidin-5-yl)-6-morpholino-1,3,5-triazin-2-yl)piperazin-1-yl)-2-oxoethoxy)methyl)piperidine-1-carbonyl)-3-cyclopropylacrylonitrile], for which, on p110α (PI3Kα) (global fitting with KinTek), the negative-log Ki (pKi) is 9.00. Moreover, on p110α (PI3Kα) (setting [3]), the kinact was determined as 0.0108 s⁻¹. Besides, the kinact/KI at p110α (PI3Kα) worked out at 1.08e+07 M⁻¹ s⁻¹. Moreover, in assay [1], the negative-log IC50 (pIC50) was 8.22. In the case of `CC(C)=CC(=O)CCC(=O)N1CC(CN2CCN(c3nc(-c4cnc(N)nc4C(F)F)nc(N4CCOCC4)n3)CC2)C1` [Compound 95, 1-(3-((4-(4-(2-amino-4-(difluoromethyl)pyrimidin-5-yl)-6-morpholino-1,3,5-triazin-2-yl)piperazin-1-yl)methyl)azetidin-1-yl)-6-methylhept-5-ene-1,4-dione], in assay [1], the negative logarithm of the IC50 (pIC50) is 7.48.

As usually defined, the pIC50 is the IC50 on a negative log10 scale, so that one unit is a factor of ten. By pKi is commonly meant the Ki on a negative log10 scale, so that one unit is a factor of ten. What is called kinact is the maximal first-order rate at which the target is inactivated.
